Key:
[1] = molecular target: T1, CAI (Homo sapiens, UniProt P00915); assay: Thermal shift assay (TSA), recombinant CAI; type: binding; details: 37 °C, pH 7.0, observed (not intrinsic)
T1 construct: made in house; host or cells: E. coli

[2] = molecular target: T2, CAIII (Homo sapiens, UniProt P07451); assay: Thermal shift assay (TSA), recombinant CAIII; type: binding; details: 37 °C, pH 7.0, observed (not intrinsic)
T2 construct: made in house; host or cells: E. coli
Protocol: (§1) The binding affinities of all fluorescein-containing compounds were determined for all 12 catalytically active CA isozymes by the thermal shift assay (TSA). […] However, the SFA technique cannot determine the affinities lower than the enzyme concentration used in the assay. […] In addition, we used isothermal titration calorimetry (ITC), the standard assay to determine affinity and enthalpy of protein–ligand binding. […] Therefore, ITC was used only to determine the enthalpy of interaction and confirm the ordering of compound affinities.
(§2) All twelve catalytically active human CA isozymes were prepared recombinantly as previously described. Isozymes CAIX, CAXII, and CAXIV were the catalytic domains of the proteins[14],[38]. All isozymes were expressed in E. coli except CAIX that has been prepared in mammalian cells. The proteins were chromatographically purified on ion-exchange or benzene sulfonamide containing affinity columns. Protein MW was confirmed by mass spectrometry with 1 Da precision as predicted from gene sequence.
(§3) Compound affinities for the twelve catalytically active CA isozymes were determined by the thermal shift assay as previously described[30],[39]. Protein solutions containing 1,8-anilinonaphthalenesulfonate fluorescent probe were heated from 25 to 100 °C at a rate of one degree per minute while following the fluorescence of the probe. The temperature scanning curves provided the melting temperature Tm of the protein. The Tm has a distinct dependence on the concentration of a compound. Stronger binders shift the Tm to a greater extent than the weak binders. The Tm dependencies on compound concentration were fit to obtain the affinity Kd[40].

[3] = molecular target: T3, CAVA (Homo sapiens, UniProt P35218); assay: Thermal shift assay (TSA), recombinant CAVA; type: binding; details: 37 °C, pH 7.0, observed (not intrinsic)
T3 construct: made in house; host or cells: E. coli
T3 sequence (P35218 39-305): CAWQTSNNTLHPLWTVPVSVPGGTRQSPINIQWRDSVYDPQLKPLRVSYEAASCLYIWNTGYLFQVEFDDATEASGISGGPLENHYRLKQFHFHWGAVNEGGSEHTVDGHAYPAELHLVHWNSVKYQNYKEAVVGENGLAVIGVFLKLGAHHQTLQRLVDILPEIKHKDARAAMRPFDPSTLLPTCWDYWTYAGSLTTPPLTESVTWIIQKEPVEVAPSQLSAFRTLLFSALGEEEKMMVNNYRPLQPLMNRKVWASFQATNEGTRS
Protocol: as §1, §2, §3

[4] = molecular target: T4, CAVI (Homo sapiens, UniProt P23280); assay: Thermal shift assay (TSA), recombinant CAVI; type: binding; details: 37 °C, pH 7.0, observed (not intrinsic)
T4 construct: made in house; host or cells: E. coli
T4 sequence (P23280 18-308): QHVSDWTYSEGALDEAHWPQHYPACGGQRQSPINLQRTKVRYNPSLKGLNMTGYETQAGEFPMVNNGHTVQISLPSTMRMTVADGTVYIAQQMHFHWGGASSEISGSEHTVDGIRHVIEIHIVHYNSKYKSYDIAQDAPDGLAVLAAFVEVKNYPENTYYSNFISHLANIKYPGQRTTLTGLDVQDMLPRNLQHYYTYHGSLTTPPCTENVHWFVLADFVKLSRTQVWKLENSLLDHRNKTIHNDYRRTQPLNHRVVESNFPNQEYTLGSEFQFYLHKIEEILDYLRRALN
Protocol: as §1, §2, §3

[5] = molecular target: T5, CAXIV (Homo sapiens, UniProt Q9ULX7); assay: Thermal shift assay (TSA), recombinant CAXIV; type: binding; details: 37 °C, pH 7.0, observed (not intrinsic)
T5 construct: Isozymes CAIX, CAXII, and CAXIV were the catalytic domains of the proteins; made in house; host or cells: E. coli
T5 sequence (Q9ULX7 20-278 limits assumed): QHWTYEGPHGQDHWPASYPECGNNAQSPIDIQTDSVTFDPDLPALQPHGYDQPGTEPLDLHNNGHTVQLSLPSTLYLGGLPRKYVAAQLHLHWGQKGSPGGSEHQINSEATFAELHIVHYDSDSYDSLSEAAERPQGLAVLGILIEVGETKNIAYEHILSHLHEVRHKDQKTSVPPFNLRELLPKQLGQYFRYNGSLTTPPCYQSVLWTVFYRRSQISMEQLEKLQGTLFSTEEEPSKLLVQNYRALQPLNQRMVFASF

[6] = molecular target: T6, catalytic domain of recombinant human CAIX (Homo sapiens, UniProt Q16790); assay: Stopped-flow assay (SFA) of inhibition of CAIX catalytic activity; type: biochemical
T6 construct: Isozymes CAIX, CAXII, and CAXIV were the catalytic domains of the proteins; made in house; host or cells: mammalian cells
Protocol: as §1
Inhibition of the CAIX catalytic activity (hydration reaction of CO2 to acid protons and bicarbonate) by selected compounds has been determined as previously described[41],[42]. The CA enzymatic activity and its inhibition were followed by the rate of change in pH spectrophotometrically followed by the change in color of indicator phenol red. Addition of increased concentrations of an inhibitor slowed the rate of the change in pH. The assay was performed using the stopped-flow equipment. The rate of spontaneous acidification due to CO2 hydration in water was subtracted from the enzymatically catalyzed rate.

[7] = molecular target: T7, CAIX expressed on HeLa cells (Homo sapiens, UniProt Q16790); assay: Fluorescein-labeled compound dosing to hypoxia-grown WT HeLa cells (Morrison single-site model); type: cell-based
T7 construct: recombinant CAIX and endogenous CAIX expressed on the cell surface; endogenous in cells; host or cells: HeLa (WT), grown under hypoxia (1% O2)
Protocol: HeLa cell culture was grown in 12-well plates, either under hypoxia (1% O2) or under normoxia (21% O2), for 70 to 76 h. The medium was removed. Then 200 µL of serially diluted compound (twelve twofold steps) in the FB medium, usually starting at 80 nM (80, 40, 20, …, 0 nM), was added and incubated at 37 ℃ under normoxia in the CO2 incubator for 20 min (2 or 5 min in some experiments where specified). Then the compound solution was removed and the cells were washed 3 times for 1.5–2 min with 400 µL of PBS at RT. Then 180 µL of TrypLe express enzyme (ThermoFisher) was added to each well and incubated in CO2 incubator for 5 min to 10 min until the cells deattached from the surface. After addition of 20 µL of Defined Trypsin Inhibitor solution (ThermoFisher), cells were resuspended by pipetting and 150 µL of the suspension from each well were transferred to black Thermo Scientific™ Nunc MicroWell 96-Well Optical-Bottom Plates for fluorescence and absorbance measurements. The fluorescence was recorded at 485 nm excitation and 520 nm emission wavelengths in the plate reader (Synergy HTX, BioTek). The absorbance was recorded at 650 nm to measure the optical density of the cell suspension.
The compound solution was prepared by weighing 3–5 mg of a purified compound and dissolving in DMSO at 10 mM concentration. The 1 mM compound stock in DMSO was prepared by taking 10 µL of 10 mM stock and adding to 90 µL DMSO. The 10 µM compound stock was prepared by taking 10 µL of 1 mM compound stock in DMSO and adding 990 µL of the FB medium (this stock contained 1% of DMSO). Then 80 nM compound solution was prepared by taking 10 µL of 10 µM solution and adding 1.24 mL of the FB medium and placed to the first Eppendorf tube. Then 300 µL of FB medium were added to the Eppendorf tubes 2 to 12. A serial dilution was performed by taking 300 µL of solution from tube 1 to 2, then from 2 to 3 and so on while mixing vigorously at each step. No solution was transferred to the last tube thus it contained only FB medium and no compound. Then 200 µL from 12 tubes were transferred to the 12 wells of cell culture-containing 12-well plate, starting from the lowest concentration.
Application of fluorescently labeled ligand GZ19-32 to cancer cells expressing CAIX will stain the cells in dose-dependent manner. The fraction of saturation increases from 0 to 1. The fraction of bound GZ19-32 (f) is equal to the molar concentration of bound GZ19-32 per molar concentration of total available CAIX, the so-called total protein Pt . f=GZ19-32bound/Pt
Upon GZ19-32 dosing, the observed fluorescence signal F can be modeled to change from the minimal background signal ( Fmin ) to maximal saturated value ( Fmax ): F=Fmin+Fmax-Fminf […]

T2 sequence (P07451 whole entry): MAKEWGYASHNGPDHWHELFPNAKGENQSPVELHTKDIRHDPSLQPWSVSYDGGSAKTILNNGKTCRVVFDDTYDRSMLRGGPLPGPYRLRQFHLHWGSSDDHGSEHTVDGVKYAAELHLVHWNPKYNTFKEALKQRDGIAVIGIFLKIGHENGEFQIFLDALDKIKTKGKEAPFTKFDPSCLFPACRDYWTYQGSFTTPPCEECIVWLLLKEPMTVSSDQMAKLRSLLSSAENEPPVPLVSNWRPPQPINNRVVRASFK
T1 sequence (P00915 whole entry): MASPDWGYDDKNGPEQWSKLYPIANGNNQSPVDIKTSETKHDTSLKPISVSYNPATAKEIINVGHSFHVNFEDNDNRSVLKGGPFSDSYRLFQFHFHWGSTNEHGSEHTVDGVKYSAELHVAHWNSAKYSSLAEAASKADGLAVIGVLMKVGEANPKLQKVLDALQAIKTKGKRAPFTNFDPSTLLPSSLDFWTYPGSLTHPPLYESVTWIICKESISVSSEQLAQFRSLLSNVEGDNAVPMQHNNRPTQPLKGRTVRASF

Row | Compound | Kd [1] | Kd [2] | Kd [3] | Kd [4] | Kd [5] | Ki [6] | binding to hypoxia-grown HeLa cells in the nM concentration region ([7]; same conditions as GZ19-32, up to about 100 nM) | number of bound molecules per HeLa cell ([7]; approximately 80 h of growth under hypoxia) | concentration at which saturation was reached ([7]; hypoxia-grown HeLa cells) | melting point
1 | 3-((2-(cyclooctylamino)-3,5,6-trifluoro-4-(methylsulfonyl)phenyl)sulfonyl)-N-(3',6'-dihydroxy-3-oxo-3H-spiro[isobenzofuran-1,9'-xanthen]-5-yl)propanamide and 3-((3-(cyclooctylamino)-2,5,6-trifluoro-4-(methylsulfonyl)phenyl)sulfonyl)-N-(3',6'-dihydroxy-3-oxo-3H-spiro[isobenzofuran-1,9'-xanthen]-5-yl)propanamide [GZ20-37] | > 100000 nM | > 100000 nM | > 100000 nM | > 100000 nM | > 100000 nM | 1500 nM | did not bind |  |  | 
2 | NS(=O)(=O)c1c(F)c(F)c(S(=O)(=O)CCC(=O)Nc2ccc3c(c2)C(=O)OC32c3ccc(O)cc3Oc3cc(O)ccc32)c(NC2CCCCCCC2)c1F [GZ19-32, 3-((2-(cyclooctylamino)-3,5,6-trifluoro-4-sulfamoylphenyl)sulfonyl)-N-(3',6'-dihydroxy-3-oxo-3H-spiro[isobenzofuran-1,9'-xanthen]-5-yl)propanamide] | 500 nM | 1670 nM | 400 nM | 330 nM | 3.3 nM |  |  | exceeded 1 million | approximately 10 nM | 189 to 190 °C
